Assay type in all cases: cell-based
Experiment [1] has as its target proteins of HEK293T cells transiently overexpressing caspase-6 (Homo sapiens, UniProt Q15185). Particulars: exp_ref Probe; protein PTGES3 (Q15185); analysis C6.
Experiment [2] has as its target T1, proteins of HEK293T cells transiently overexpressing caspase-6 (Homo sapiens, UniProt O00567).
T1 sequence (O00567 1-594): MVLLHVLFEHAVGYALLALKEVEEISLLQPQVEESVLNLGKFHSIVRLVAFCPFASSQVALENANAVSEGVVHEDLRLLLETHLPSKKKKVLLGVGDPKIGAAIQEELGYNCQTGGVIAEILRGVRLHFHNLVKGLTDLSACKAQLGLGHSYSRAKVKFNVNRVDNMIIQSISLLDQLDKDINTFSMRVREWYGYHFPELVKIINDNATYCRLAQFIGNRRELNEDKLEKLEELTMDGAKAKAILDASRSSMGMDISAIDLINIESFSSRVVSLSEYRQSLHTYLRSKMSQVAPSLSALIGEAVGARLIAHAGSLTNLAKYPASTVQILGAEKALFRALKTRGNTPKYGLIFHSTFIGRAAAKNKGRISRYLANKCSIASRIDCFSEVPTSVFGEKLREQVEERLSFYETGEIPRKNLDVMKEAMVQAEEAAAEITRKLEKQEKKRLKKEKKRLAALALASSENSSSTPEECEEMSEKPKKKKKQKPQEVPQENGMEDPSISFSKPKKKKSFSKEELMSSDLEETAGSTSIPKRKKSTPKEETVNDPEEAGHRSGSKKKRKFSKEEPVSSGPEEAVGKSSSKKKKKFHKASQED
Particulars: exp_ref Probe; protein NOP56 (O00567); analysis C6.

The target of experiment [3] is proteins of HEK293T cells transiently overexpressing caspase-6 (Homo sapiens, UniProt Q01082). Particulars: Probe; protein SPTBN1 Q01082.
Sequence of proteins of HEK293T cells transiently overexpressing caspase-6 (Homo sapiens, UniProt Q01082) (Q01082 whole entry): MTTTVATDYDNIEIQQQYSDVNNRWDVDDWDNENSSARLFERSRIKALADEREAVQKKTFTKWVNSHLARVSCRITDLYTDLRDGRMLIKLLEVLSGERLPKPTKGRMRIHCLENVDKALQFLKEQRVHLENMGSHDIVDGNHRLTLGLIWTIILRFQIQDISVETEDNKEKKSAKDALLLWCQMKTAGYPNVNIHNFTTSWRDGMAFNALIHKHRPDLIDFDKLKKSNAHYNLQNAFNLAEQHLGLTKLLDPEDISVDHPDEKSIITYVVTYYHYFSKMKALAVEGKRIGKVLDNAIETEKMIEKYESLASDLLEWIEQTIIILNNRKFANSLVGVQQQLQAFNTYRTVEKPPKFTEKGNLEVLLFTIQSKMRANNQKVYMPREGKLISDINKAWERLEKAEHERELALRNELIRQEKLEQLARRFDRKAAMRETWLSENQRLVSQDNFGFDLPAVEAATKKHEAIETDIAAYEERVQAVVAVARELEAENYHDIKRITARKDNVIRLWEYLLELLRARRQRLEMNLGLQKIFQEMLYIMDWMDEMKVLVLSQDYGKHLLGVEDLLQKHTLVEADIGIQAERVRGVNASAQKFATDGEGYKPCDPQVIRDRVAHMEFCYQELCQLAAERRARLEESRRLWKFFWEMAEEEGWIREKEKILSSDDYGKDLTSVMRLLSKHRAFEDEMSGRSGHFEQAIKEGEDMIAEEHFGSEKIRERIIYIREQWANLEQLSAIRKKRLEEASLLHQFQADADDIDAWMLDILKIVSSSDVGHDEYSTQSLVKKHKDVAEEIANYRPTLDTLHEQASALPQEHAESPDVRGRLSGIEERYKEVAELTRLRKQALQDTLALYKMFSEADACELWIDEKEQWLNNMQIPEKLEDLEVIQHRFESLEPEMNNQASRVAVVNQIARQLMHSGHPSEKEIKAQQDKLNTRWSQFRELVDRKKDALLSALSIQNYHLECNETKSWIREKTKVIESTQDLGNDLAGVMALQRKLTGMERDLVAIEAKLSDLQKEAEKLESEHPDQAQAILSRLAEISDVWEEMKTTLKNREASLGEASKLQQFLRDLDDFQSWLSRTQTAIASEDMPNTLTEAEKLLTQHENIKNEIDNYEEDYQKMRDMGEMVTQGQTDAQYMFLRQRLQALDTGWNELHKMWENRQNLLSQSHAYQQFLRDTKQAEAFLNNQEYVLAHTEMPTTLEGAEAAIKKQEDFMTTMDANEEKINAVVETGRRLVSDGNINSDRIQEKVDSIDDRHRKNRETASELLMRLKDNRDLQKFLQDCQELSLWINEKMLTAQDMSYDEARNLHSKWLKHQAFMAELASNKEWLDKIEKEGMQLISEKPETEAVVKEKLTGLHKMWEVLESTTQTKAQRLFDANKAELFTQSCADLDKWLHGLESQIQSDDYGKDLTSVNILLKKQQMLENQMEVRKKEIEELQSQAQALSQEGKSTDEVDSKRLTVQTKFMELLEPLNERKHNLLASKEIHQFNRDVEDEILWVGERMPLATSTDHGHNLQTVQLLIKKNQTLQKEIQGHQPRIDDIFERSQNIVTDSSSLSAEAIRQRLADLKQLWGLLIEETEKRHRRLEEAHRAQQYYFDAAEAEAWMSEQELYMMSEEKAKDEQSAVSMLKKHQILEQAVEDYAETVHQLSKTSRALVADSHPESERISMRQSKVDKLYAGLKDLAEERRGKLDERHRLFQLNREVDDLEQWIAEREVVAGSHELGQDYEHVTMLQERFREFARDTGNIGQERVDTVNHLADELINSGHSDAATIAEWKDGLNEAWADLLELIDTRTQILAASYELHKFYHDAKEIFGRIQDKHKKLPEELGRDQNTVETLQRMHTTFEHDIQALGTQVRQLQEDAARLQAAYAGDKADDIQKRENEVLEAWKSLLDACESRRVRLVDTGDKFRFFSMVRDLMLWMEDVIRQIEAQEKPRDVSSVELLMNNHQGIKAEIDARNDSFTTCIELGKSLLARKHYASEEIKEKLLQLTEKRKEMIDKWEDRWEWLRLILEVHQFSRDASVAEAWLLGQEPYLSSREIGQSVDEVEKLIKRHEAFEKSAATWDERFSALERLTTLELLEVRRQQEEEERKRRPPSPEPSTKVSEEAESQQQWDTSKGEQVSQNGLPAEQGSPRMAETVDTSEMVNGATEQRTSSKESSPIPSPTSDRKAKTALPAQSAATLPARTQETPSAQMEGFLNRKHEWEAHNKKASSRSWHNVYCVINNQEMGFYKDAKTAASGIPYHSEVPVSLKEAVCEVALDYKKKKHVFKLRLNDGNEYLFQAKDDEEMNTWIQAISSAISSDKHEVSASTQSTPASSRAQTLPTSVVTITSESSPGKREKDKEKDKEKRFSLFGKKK
Experiment [4] addresses proteins of HEK293T cells transiently overexpressing caspase-6 (Homo sapiens, UniProt P31948).
In experiment [5] the target is proteins of HEK293T cells transiently overexpressing caspase-6 (Homo sapiens, UniProt P39023). Particulars: exp_ref Probe; protein RPL3 (P39023); analysis C6.
Experiment [6] has as its target proteins of HEK293T cells transiently overexpressing caspase-6 (Homo sapiens, UniProt P07814). Particulars: exp_ref Probe; protein EPRS (P07814); analysis C6.
Experiment [7] concerns the target proteins of HEK293T cells transiently overexpressing caspase-6 (Homo sapiens, UniProt P09651). Particulars: protein HNRNPA1 (P09651).
Experiment [8] concerns the target T2, proteins of HEK293T cells transiently overexpressing caspase-6 (Homo sapiens, UniProt Q9NQC3).
T2 sequence (Q9NQC3 1-1192): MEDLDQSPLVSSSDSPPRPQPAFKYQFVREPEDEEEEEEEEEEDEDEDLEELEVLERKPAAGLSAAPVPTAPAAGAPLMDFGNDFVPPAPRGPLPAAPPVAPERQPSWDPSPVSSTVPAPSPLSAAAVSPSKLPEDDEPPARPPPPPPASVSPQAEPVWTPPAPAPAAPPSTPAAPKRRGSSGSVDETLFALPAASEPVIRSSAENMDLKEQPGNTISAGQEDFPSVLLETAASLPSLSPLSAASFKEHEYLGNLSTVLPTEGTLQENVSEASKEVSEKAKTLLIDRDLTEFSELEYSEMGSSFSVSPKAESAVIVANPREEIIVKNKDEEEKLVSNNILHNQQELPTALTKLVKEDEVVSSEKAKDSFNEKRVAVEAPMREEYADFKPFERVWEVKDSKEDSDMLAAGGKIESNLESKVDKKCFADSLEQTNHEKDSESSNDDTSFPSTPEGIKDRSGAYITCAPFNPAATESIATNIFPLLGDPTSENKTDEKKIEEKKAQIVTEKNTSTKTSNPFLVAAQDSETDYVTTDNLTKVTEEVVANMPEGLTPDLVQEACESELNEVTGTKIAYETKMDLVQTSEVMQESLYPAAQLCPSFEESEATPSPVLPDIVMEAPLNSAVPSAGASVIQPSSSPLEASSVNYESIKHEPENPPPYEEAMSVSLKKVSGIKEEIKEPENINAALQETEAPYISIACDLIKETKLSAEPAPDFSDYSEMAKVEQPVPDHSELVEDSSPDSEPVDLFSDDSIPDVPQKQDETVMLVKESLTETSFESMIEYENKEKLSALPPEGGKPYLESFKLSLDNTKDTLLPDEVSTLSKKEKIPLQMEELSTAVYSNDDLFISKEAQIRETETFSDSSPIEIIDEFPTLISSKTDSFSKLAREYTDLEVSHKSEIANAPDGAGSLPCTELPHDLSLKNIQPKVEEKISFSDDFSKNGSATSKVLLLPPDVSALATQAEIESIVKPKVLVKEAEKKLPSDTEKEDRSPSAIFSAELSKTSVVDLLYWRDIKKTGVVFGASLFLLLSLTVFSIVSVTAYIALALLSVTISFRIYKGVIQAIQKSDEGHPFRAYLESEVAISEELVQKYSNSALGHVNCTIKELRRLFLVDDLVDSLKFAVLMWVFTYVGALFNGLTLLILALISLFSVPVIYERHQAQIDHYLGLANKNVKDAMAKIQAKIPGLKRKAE
Particulars: protein RTN4 (Q9NQC3), analysis C6.

The target of experiment [9] is T3, proteins of HEK293T cells transiently overexpressing caspase-6 (Homo sapiens, UniProt P40926).
T3 sequence (P40926 25-338): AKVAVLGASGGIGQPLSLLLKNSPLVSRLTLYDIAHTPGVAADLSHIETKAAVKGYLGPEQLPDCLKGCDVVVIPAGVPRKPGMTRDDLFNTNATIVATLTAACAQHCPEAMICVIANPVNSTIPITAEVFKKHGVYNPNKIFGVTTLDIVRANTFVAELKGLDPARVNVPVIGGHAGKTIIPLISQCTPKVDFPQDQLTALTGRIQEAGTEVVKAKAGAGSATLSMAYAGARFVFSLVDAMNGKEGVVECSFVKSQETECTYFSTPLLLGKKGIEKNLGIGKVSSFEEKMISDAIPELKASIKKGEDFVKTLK
Particulars: protein MDH2 (P40926).

Sequence of proteins of HEK293T cells transiently overexpressing caspase-6 (Homo sapiens, UniProt P31948) (P31948 whole entry): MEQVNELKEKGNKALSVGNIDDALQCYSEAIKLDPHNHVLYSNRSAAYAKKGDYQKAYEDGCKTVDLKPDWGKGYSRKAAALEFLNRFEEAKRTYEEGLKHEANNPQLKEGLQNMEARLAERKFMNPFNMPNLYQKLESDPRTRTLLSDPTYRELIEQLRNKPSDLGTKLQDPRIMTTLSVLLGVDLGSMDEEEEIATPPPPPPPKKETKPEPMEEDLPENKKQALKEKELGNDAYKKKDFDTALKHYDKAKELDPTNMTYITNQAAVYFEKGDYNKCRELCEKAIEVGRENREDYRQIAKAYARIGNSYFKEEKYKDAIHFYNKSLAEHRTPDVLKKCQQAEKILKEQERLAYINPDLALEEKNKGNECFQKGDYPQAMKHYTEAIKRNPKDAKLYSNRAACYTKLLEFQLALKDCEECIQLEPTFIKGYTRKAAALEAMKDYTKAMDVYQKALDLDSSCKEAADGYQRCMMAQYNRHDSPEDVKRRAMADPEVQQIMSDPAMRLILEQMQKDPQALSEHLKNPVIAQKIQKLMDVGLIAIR
Sequence of proteins of HEK293T cells transiently overexpressing caspase-6 (Homo sapiens, UniProt P09651) (P09651 whole entry): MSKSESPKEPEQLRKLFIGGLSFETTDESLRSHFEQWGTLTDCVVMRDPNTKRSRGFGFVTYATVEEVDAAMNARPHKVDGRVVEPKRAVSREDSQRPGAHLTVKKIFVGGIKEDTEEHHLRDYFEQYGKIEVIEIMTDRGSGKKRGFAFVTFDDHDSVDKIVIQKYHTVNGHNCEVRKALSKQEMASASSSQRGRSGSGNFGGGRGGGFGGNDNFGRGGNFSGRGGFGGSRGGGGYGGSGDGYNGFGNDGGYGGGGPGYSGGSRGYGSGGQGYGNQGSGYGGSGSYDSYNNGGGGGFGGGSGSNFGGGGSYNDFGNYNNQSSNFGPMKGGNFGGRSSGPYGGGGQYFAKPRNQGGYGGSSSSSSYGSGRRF
Sequence of proteins of HEK293T cells transiently overexpressing caspase-6 (Homo sapiens, UniProt Q15185) (Q15185 whole entry): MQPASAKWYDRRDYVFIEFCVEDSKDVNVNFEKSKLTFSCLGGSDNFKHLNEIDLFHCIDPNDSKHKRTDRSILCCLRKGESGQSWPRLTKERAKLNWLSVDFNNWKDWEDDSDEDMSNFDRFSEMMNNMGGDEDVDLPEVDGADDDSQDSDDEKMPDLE
Sequence of proteins of HEK293T cells transiently overexpressing caspase-6 (Homo sapiens, UniProt P07814) (P07814 whole entry): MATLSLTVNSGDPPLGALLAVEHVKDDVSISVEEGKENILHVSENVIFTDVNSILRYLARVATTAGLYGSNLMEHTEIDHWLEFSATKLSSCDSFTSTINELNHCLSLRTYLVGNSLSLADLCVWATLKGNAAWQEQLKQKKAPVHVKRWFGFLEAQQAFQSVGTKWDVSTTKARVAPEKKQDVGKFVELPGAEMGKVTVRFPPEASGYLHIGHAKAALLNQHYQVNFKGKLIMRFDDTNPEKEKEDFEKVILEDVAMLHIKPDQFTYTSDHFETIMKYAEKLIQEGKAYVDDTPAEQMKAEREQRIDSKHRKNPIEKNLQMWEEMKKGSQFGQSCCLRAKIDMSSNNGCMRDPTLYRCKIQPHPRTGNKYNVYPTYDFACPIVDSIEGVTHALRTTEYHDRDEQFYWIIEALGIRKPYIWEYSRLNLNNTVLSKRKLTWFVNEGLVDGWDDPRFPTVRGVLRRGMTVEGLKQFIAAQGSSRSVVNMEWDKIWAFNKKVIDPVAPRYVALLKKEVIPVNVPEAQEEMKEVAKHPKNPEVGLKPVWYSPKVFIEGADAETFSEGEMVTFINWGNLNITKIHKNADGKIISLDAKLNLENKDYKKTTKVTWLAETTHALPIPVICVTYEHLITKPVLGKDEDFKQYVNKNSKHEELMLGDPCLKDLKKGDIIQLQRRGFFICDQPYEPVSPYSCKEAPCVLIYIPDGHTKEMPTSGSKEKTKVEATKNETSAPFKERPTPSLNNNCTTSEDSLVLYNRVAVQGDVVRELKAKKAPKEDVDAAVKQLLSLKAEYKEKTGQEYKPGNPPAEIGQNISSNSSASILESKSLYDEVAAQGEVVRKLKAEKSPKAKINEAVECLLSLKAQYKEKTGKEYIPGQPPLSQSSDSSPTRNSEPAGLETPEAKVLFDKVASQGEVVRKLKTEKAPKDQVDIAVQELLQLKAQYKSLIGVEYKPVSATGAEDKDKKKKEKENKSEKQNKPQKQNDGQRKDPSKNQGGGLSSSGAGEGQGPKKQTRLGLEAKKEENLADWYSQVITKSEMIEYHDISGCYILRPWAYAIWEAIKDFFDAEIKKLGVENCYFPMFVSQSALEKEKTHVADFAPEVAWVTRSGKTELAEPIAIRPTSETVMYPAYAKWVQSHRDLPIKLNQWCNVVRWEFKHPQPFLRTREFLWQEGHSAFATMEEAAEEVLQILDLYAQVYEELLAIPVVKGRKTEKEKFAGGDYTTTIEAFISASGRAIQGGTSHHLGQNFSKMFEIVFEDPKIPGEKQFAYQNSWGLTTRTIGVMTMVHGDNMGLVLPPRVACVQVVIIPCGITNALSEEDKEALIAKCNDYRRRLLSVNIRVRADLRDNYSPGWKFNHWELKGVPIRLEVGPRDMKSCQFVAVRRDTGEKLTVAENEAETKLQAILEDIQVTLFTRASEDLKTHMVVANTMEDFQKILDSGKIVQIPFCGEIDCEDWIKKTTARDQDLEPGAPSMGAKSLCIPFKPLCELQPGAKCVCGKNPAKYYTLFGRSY

Take `C#CCOc1ccc([C@@H]2C[C@@H](C(=O)Nc3ccc(OC(F)(F)F)cc3)CN(S(=O)(=O)C=C)C2)cc1` (relative stereo) [13-t]: the enrich.exp.med in experiment [1] was 1.128; in experiment [2], -0.321; in [3], -1.031; in experiment [4] (Probe, protein STIP1 P31948) it was -0.591; in experiment [5] it was -0.06221; in experiment [6], 0.5173. In addition, the enrich.exp.med in experiment [7] (exp_ref Probe, analysis C6) stood at 0.3216; in experiment [8] (exp_ref Probe) it was 2.686; in [9] (exp_ref Probe, analysis C6), 0.3462. For the same compound, the enrich.exp.med.lin in [4] (protein STIP1 (P31948)) was 0.6639; in experiment [7] it was 1.2497; in experiment [8] (Expt Probe), 6.436; in experiment [9] it was 1.2712. Also, the enrich.exp.med.log2 is -0.591 in experiment [4] (protein STIP1 (P31948)), 0.3216 in [7], 2.686 in experiment [8] (Expt Probe) and 0.3462 in experiment [9].

Source of the values: paper PMC10176470, “Engaging a Non-catalytic Cysteine Residue Drives Potent and Selective Inhibition of Caspase-6” (Journal of the American Chemical Society, 2023).
